Test results: ChEMBL document CHEMBL1157764, “Conserved high activity binding peptides are involved in adhesion of two detergent-resistant membrane-associated merozoite proteins to red blood cells during invasion” (J Med Chem, 2010)
Where a SMILES comes first, the peptide text is derived from it.

Organism: Homo sapiens
Assay: Binding affinity to RBC membrane receptor in human RBCs assessed as specific binding activity measured as ratio of specifically bound peptide/added peptide by gamma counter

Compound | Activity
CC[C@H](C)[C@H](NC(=O)[C@H](CC(C)C)NC(=O)[C@H](CS)NC(=O)[C@@H](NC(=O)[C@H](CC(C)C)NC(=O)[C@H](Cc1ccccc1)NC(=O)[C@H](CCC(N)=O)NC(=O)[C@H](CC(C)C)NC(=O)[C@H](CC(C)C)NC(=O)[C@H](CC(C)C)NC(=O)[C@@H](NC(=O)[C@H](Cc1cnc[nH]1)NC(=O)[C@H](CC(C)C)NC(=O)[C@@H](NC(=O)[C@H](Cc1ccccc1)NC(=O)[C@H](Cc1ccccc1)NC(=O)[C@@H]1CCCN1C(=O)[C@@H](NC(=O)[C@H](CCCCN)NC(=O)[C@@H](N)CCSC)[C@@H](C)CC)[C@@H](C)CC)[C@@H](C)CC)[C@@H](C)CC)C(=O)N[C@@H](Cc1ccc(O)cc1)C(=O)O | > 2%
H-YMREIRLLGKCMLSFDEGNN-OH | > 2%
CC[C@H](C)[C@H](NC(=O)[C@H](Cc1ccc(O)cc1)NC(=O)[C@H](CS)NC(=O)[C@@H]1CCCN1C(=O)[C@H](CC(=O)O)NC(=O)[C@@H](N)CCC(=O)O)C(=O)N[C@@H](CC(N)=O)C(=O)N[C@@H](CC(N)=O)C(=O)N[C@@H](CO)C(=O)N[C@@H](Cc1ccc(O)cc1)C(=O)N[C@H](C(=O)N[C@@H](CO)C(=O)N[C@H](C(=O)N[C@@H](CC(N)=O)C(=O)N[C@H](C(=O)N[C@H](C(=O)N[C@@H](CS)C(=O)N[C@@H](CC(N)=O)C(=O)N[C@@H](CCCCN)C(=O)N[C@@H](CCC(=O)O)C(=O)O)C(C)C)C(C)C)C(C)C)C(C)C (H-EDPCYINNSYVSVNVVCNKE-OH) | > 2%
H-TLVNNKENKEFVLKEKSSLTY-OH | > 2%
H-SPNYELSLNSLSDSQNVDIF-OH | > 2%
CC[C@H](C)[C@H](NC(=O)[C@@H](NC(=O)[C@H](CC(=O)O)NC(=O)[C@H](CC(N)=O)NC(=O)[C@H](Cc1cnc[nH]1)NC(=O)[C@@H](NC(=O)[C@H](Cc1ccc(O)cc1)NC(=O)[C@H](CS)NC(=O)[C@@H](N)CCCNC(=N)N)C(C)C)C(C)C)C(=O)N[C@@H](CCCCN)C(=O)N[C@@H](Cc1ccccc1)C(=O)NCC(=O)N[C@@H](CCC(=O)O)C(=O)N[C@@H](CCC(=O)O)C(=O)N[C@@H](CC(N)=O)C(=O)N[C@@H](CO)C(=O)N[C@@H](CC(C)C)C(=O)N[C@@H](CCCCN)C(=O)N[C@@H](CS)C(=O)N[C@@H](CO)C(=O)O | > 2%
H-TEEKGKDEQKKDEQKEQDEEY-OH | > 2%
H-DEVFGSQSSNFNIFDSNNTDY-OH | > 2%
H-FEVRLPKDIKVTENCFRYSF-OH | > 2%
H-GTAMESLLYLNNNNVKKLID-OH | > 2%
H-SEEANDENKDNMQTTTDEGTY-OH | > 2%
CC[C@H](C)[C@H](NC(=O)[C@H](C)NC(=O)[C@H](CCC(=O)O)NC(=O)[C@H](C)NC(=O)[C@H](CC(=O)O)NC(=O)[C@@H](NC(=O)[C@H](CO)NC(=O)[C@H](CC(=O)O)NC(=O)[C@H](CCC(=O)O)NC(=O)[C@H](CC(=O)O)NC(=O)[C@H](CC(N)=O)NC(=O)[C@H](CCC(N)=O)NC(=O)[C@H](CCC(N)=O)NC(=O)[C@H](CC(C)C)NC(=O)[C@H](CCC(=O)O)NC(=O)[C@@H](N)CCC(=O)O)[C@@H](C)O)C(=O)N[C@@H](CC(=O)O)C(=O)N[C@@H](CCCCN)C(=O)N[C@@H](CCC(=O)O)C(=O)N[C@@H](CCC(=O)O)C(=O)N[C@H](C(=O)N[C@@H](CCC(=O)O)C(=O)N[C@@H](Cc1ccc(O)cc1)C(=O)O)C(C)C | > 2%
H-YGKEFKWSDPKVIDVSNVIG-OH | > 2%
H-QNNEQEQPKQDDQLLNNNNDY-OH | > 2%
CC[C@H](C)[C@H](NC(=O)[C@@H](N)CO)C(=O)N[C@@H](CCC(=O)O)C(=O)N[C@@H](C)C(=O)N[C@@H](CO)C(=O)N[C@@H](CCC(=O)O)C(=O)N[C@@H](CO)C(=O)N[C@@H](CO)C(=O)N[C@@H](CCC(N)=O)C(=O)N[C@@H](CCCCN)C(=O)N[C@@H](CC(=O)O)C(=O)N[C@@H](CCC(=O)O)C(=O)N[C@H](C(=O)N[C@@H](CCCCN)C(=O)N[C@@H](CCC(=O)O)C(=O)N[C@H](C(=O)N[C@@H](CCC(=O)O)C(=O)N[C@@H](CC(=O)O)C(=O)N[C@@H](CCCCN)C(=O)N[C@@H](CCC(=O)O)C(=O)N[C@@H](Cc1ccc(O)cc1)C(=O)O)[C@H](C)O)[C@@H](C)O | > 2%
H-NNDDQDEQGNDGDVTSSMNKY-OH | > 2%
H-KETQEKSDQEPSQNIQEDNSY-OH | > 2%
H-ITIEELFKSAIKTEEMKDNKY-OH | < 2%
H-NYKSTYCVLSNNYRIVVEFD-OH | > 2%

Compound | Activity
CC[C@H](C)[C@H](NC(=O)[C@H](CC(=O)O)NC(=O)[C@H](CC(N)=O)NC(=O)[C@H](CC(N)=O)NC(=O)[C@@H](N)CCC(N)=O)C(=O)N[C@@H](CC(=O)O)C(=O)N[C@@H](Cc1cnc[nH]1)C(=O)N[C@@H](CO)C(=O)N[C@@H](CCC(=O)O)C(=O)N[C@@H](CC(=O)O)C(=O)N[C@@H](CCCCN)C(=O)N[C@@H](CCCCN)C(=O)N[C@@H](CC(C)C)C(=O)N[C@H](C(=O)N[C@@H](CO)C(=O)N[C@@H](CCCNC(=N)N)C(=O)N[C@H](C(=O)N[C@@H](CC(C)C)C(=O)N[C@@H](Cc1ccc(O)cc1)C(=O)N[C@@H](Cc1ccc(O)cc1)C(=O)O)C(C)C)[C@@H](C)CC | < 2%
H-QEKLNTTDPSKAYIYGANII-OH | > 2%
H-SDIFFKYNPSENIMDHQEMV-OH | > 2%
H-LGYDNCTIEVNKTVNGIDWN-OH | > 2%
H-MAVYNALYEKAQSYNLQKLF-OH | > 2%
H-EEQENEDSTDAEAIDKEEVEY-OH | > 2%
H-RYNEMKRDANPDVYYIYLMD-OH | > 2%
CC[C@H](C)[C@H](NC(=O)[C@H](Cc1ccc(O)cc1)NC(=O)[C@H](CCC(=O)O)NC(=O)[C@H](CO)NC(=O)[C@@H](NC(=O)[C@H](CC(=O)O)NC(=O)[C@H](CCCCN)NC(=O)[C@H](CC(C)C)NC(=O)[C@H](CCCCN)NC(=O)[C@@H](NC(=O)[C@H](CCC(=O)O)NC(=O)[C@H](CS)NC(=O)[C@H](Cc1ccccc1)NC(=O)[C@@H]1CCCN1C(=O)[C@H](CO)NC(=O)[C@@H](N)Cc1cnc[nH]1)[C@@H](C)CC)[C@@H](C)CC)C(=O)N[C@@H](CCCNC(=N)N)C(=O)N[C@@H](CCCCN)C(=O)N[C@@H](CCCCN)C(=O)N[C@@H](CS)C(=O)O (H-HSPFCEIKLKDISEYIRKKC-OH) | > 2%
H-TLDIEKIEDINLEEVKMSLLY-OH | > 2%
CC[C@H](C)[C@H](N)C(=O)N[C@@H](CCCCN)C(=O)N[C@@H](Cc1ccc(O)cc1)C(=O)N[C@H](C(=O)N[C@@H](CCC(=O)O)C(=O)N[C@@H](Cc1ccccc1)C(=O)N[C@@H](Cc1ccccc1)C(=O)N[C@@H](CCC(=O)O)C(=O)N[C@@H](CO)C(=O)N[C@@H](CC(N)=O)C(=O)N[C@@H](Cc1ccc(O)cc1)C(=O)N[C@@H](CC(N)=O)C(=O)N[C@@H](CCCNC(=N)N)C(=O)N[C@@H](CC(C)C)C(=O)N[C@@H](CCCCN)C(=O)N[C@@H](CCCNC(=N)N)C(=O)N[C@@H](CO)C(=O)N[C@@H](Cc1ccccc1)C(=O)N[C@@H](CCC(N)=O)C(=O)N[C@@H](CCCCN)C(=O)O)[C@@H](C)O | < 2%
H-NNEKVVPLSNEPQEIIQPPIY-OH | > 2%
CC[C@H](C)[C@H](NC(=O)[C@H](C)NC(=O)[C@@H](NC(=O)[C@H](Cc1ccccc1)NC(=O)[C@@H](NC(=O)[C@@H](NC(=O)[C@H](CC(N)=O)NC(=O)[C@@H](C)N)[C@@H](C)CC)[C@@H](C)CC)[C@@H](C)CC)C(=O)N[C@H](C(=O)N[C@@H](CO)C(=O)N[C@H](C(=O)N[C@H](C(=O)N[C@@H](CO)C(=O)N[C@@H](CC(C)C)C(=O)N[C@@H](CO)C(=O)N[C@H](C(=O)N[C@@H](CO)C(=O)N[C@@H](CO)C(=O)N[C@@H](Cc1ccccc1)C(=O)N[C@H](C(=O)N[C@@H](Cc1ccc(O)cc1)C(=O)O)[C@@H](C)CC)[C@@H](C)CC)[C@@H](C)CC)[C@@H](C)CC)[C@@H](C)CC | > 2%
CC[C@H](C)[C@H](NC(=O)[C@@H](NC(=O)[C@H](Cc1ccc(O)cc1)NC(=O)[C@H](CCC(=O)O)NC(=O)[C@H](CCCCN)NC(=O)[C@H](CCC(=O)O)NC(=O)[C@H](Cc1ccc(O)cc1)NC(=O)[C@H](CO)NC(=O)[C@H](Cc1ccccc1)NC(=O)[C@H](Cc1ccc(O)cc1)NC(=O)[C@H](CO)NC(=O)[C@@H](NC(=O)[C@H](CCSC)NC(=O)[C@H](Cc1ccc(O)cc1)NC(=O)[C@@H](NC(=O)CNC(=O)[C@H](CCCCN)NC(=O)[C@@H]1CCCN1C(=O)[C@@H](N)Cc1ccccc1)[C@@H](C)O)[C@@H](C)O)C(C)C)C(=O)N[C@@H](CO)C(=O)O | > 2%
CC[C@H](C)[C@H](NC(=O)[C@H](CCC(=O)O)NC(=O)[C@H](CC(N)=O)NC(=O)[C@H](CC(N)=O)NC(=O)CNC(=O)[C@H](CC(N)=O)NC(=O)[C@H](CC(C)C)NC(=O)[C@H](CS)NC(=O)[C@H](CCC(N)=O)NC(=O)[C@@H](NC(=O)[C@H](CCC(=O)O)NC(=O)[C@H](CS)NC(=O)[C@H](Cc1cnc[nH]1)NC(=O)[C@H](CC(C)C)NC(=O)[C@@H](NC(=O)[C@H](Cc1ccc(O)cc1)NC(=O)[C@H](CC(C)C)NC(=O)[C@H](CC(N)=O)NC(=O)CNC(=O)[C@@H](N)CCC(N)=O)C(C)C)C(C)C)C(=O)O (H-QGNLYVLHCEVQCLNGNNEI-OH) | > 2%
H-SKINKELAHRTALFNKLADNY-OH | > 2%
CC[C@H](C)[C@H](NC(=O)[C@H](CC(C)C)NC(=O)[C@@H](N)C(C)C)C(=O)N[C@@H](C)C(=O)N[C@@H](CCC(=O)O)C(=O)NCC(=O)N[C@@H](Cc1ccc(O)cc1)C(=O)N[C@@H](CCCCN)C(=O)N[C@@H](CCCNC(=N)N)C(=O)N[C@H](C(=O)N[C@@H](CC(N)=O)C(=O)N[C@@H](CCC(=O)O)C(=O)N[C@@H](CCCCN)C(=O)N[C@@H](CCC(=O)O)C(=O)N[C@@H](CC(=O)O)C(=O)N[C@H](C(=O)N[C@@H](CC(=O)O)C(=O)N[C@@H](CCCNC(=N)N)C(=O)N[C@@H](CCCNC(=N)N)C(=O)O)[C@@H](C)CC)[C@@H](C)CC | > 2%
CC[C@H](C)[C@H](NC(=O)[C@@H]1CCCN1C(=O)[C@H](Cc1ccccc1)NC(=O)[C@H](Cc1cnc[nH]1)NC(=O)[C@H](Cc1ccccc1)NC(=O)[C@H](CCC(N)=O)NC(=O)[C@@H](NC(=O)[C@H](CCC(=O)O)NC(=O)[C@@H](NC(=O)[C@H](Cc1ccc(O)cc1)NC(=O)[C@H](CC(=O)O)NC(=O)[C@H](CCC(=O)O)NC(=O)[C@@H](N)CC(C)C)C(C)C)C(C)C)C(=O)N[C@@H](Cc1ccc(O)cc1)C(=O)N[C@@H](Cc1ccc(O)cc1)C(=O)N[C@H](C(=O)N[C@@H](CCCCN)C(=O)N[C@@H](Cc1ccccc1)C(=O)N[C@@H](CC(C)C)C(=O)N[C@@H](Cc1ccc(O)cc1)C(=O)O)[C@H](C)O | > 2%
H-EKKDVKVSGNNNIAVVYSIF-OH | > 2%
